US20090136468A1, “PERI-OPERATIVE COMPOSITION COMPRISING LACTOBACILLUS RHAMNOSUS” (N.V. NUTRICIA, priority 2004, published 2009)

How the values were obtained:
[1] = test system: our preferred Lb. rhamnosus (LMG P-22799); assay: Broth micro dilution test, MIC; format: cell-based, Lactobacillus rhamnosus
Protocol: (§1) The inocula of 131 strains of Lactobacillus rhamnosus species are prepared by suspending several freshly cultivated single colonies in a tube with 5 ml of saline up to an optical density of McFarland standard No. 0.5. The corresponding colonies are picked up from MRS (de Man, Rogosa, Sharpe) agar plates on which the strains grew for 48 h at 37° C. and at 5% CO2 atmosphere. Subsequently, this suspension is diluted 1:10 by transferring 4 ml of the McFarland No. 0.5 suspension into a suitable inoculum container with 36 ml of saline and subsequent careful mixing. The MIC microtiter test plates (95 wels with different concentrations of the test antibiotics and one wel for the growth control without any antibiotic) were prepared before. Nutrient medium: LSM (lactobacilli susceptibility test medium) broth consisting of 90% Iso-sensitest broth plus 10% MRS broth (pH 6.7). The inoculations of the pre-made MIC test plates are performed by a multipoint inoculator (final inoculum of these LAB in the microtiter plate: about 10^5 bacteria ml^−1). The plates are subsequently incubated in ambient air or in a 5% CO2 atmosphere at 37° C. for 24 (−48) h. Then the MICs are read as the lowest concentration in the increasing concentration row of the corresponding antibiotic in which no growth of the test organism was observed. The control attempt (without antibiotic) of the corresponding strain tested has to show sufficient growth.
(§2) In a large study comprising 131 different Lb. rhamosus strains the sensitivity for antibiotics was tested. In table 6 the number of strains falling within a certain dilution factor are shown. Clearly there are large differences in antibiotic sensitivity within the Lb. rhamnosus group. The more sensitive to these antibiotics, the better and together with the other parameters, such as the inhibition of adhesion of pathogens to intestinal epithelial cells is used to select the most appropriate Lb. rhamnosus. […]

Lb. rhamnosus GG = assay: Broth micro dilution test, MIC; format: cell-based, Lactobacillus rhamnosus; settings: Lacticaseibacillus rhamnosus, unit from Table 6, read-out: MIC against Lb. rhamnosus GG
Protocol: as §1, §2

L. rhamnosus LMG P-22799 = assay: MIC by serial dilution of antibiotics in MRS broth; format: cell-based, Lactobacillus rhamnosus; settings: 24 hours at 37° C.
Protocol: (§3) The Minimal inhibitory concentration (MIC) was determined by serial dilution of the tested antibiotics in MRS broth (Oxoid) and inoculate the broth with the probiotic strain to be tested.
(§4) Strains of Lactobacilli were cultured for 24 hours in MRS-broth at 37° C. and under aerobic conditions. A dilution series of the 24 hours-culture in MRS-broth was prepared (dilution factor 10, from 10^−1 to 1^−10). The dilution series were cultured overnight (i.e. 16 h) at 37° C. under aerobic conditions. The highest dilution in which still growth was observed was selected to inoculate a 96-wells plate. The culture was centrifuge for 10 min at 3800 rpm and 4° C. and resuspended in the same volume of PBS (4° C.). The Lactobacilli were counted under a microscope and the solution was diluted in cold PBS to obtain a concentration of 1*10^8 cells/ml.
(§5) Wells of a 96-wells plate were filled with MRS broth and with antibiotics in varying dilution to a total volume of 95 μl. As a control, no antibiotics were added. The following final dilutions of antibiotics were tested:
(§6) bacitracin, colistin, nystatin, polymixin B, vancomycin: 1000, 500, 250, 125, 62.5 ug/ml erythromycin, kanamycin, neomycm: 100, 50, 25, 12.5, 6.25 ug/ml ampicillin, chloramphenicol, lincomycin, penicillin, streptomycin, tetracyclin: 10, 5, 2.5, 1.25, 0.625 ug/ml
(§7) The plates were incubated for 24 hours at 37° C. in a SpectaMAX plate reader (shaking every 10 minutes for 20 seconds) and the optical density was determined at 600 nm.

[2] = test system: L. rhamnosus GG (ATCC 53103); assay: MIC by serial dilution of antibiotics in MRS broth; format: cell-based, Lactobacillus rhamnosus; settings: 24 hours at 37° C.
Protocol: as §3, §4, §5, §6, §7

[3] = test system: 131 strains of Lactobacillus rhamnosus; assay: Broth micro dilution test, MIC distribution; format: cell-based; settings: 131 L. rhamnosus strains, LSM broth, 37° C.
Protocol: as §1

| Compound | Antibiotic sensitivity (expressed as MIC) of L. rhamnosus LMG P-22799 (L. rhamnosus LMG P-22799) | Antibiotic sensitivity (expressed as MIC) of L. rhamnosus GG (ATTC 53103) [2] | Number of strains with a MIC of 0.5 μg/ml [3] | Number of strains with a MIC of 1.0 μg/ml [3] | Number of strains with a MIC of 2.0 μg/ml [3] | Number of strains with a MIC of 4.0 μg/ml [3] | further results |
| --- | --- | --- | --- | --- | --- | --- | --- |
| CC[C@H]1OC(=O)[C@H](C)[C@@H](O[C@H]2C[C@@](C)(OC)[C@@H](O)[C@H](C)O2)[C@H](C)[C@@H](O[C@@H]2O[C@H](C)C[C@H](N(C)C)[C@H]2O)[C@](C)(O)C[C@@H](C)C(=O)[C@H](C)[C@@H](O)[C@]1(C)O [Erythromycin, erythromycin] | 50 µg/mL | >100 µg/mL | – | – | – | – | – |
| CCC[C@@H]1C[C@@H](C(=O)N[C@@H]([C@H]2O[C@H](SC)[C@H](O)[C@@H](O)[C@H]2O)[C@@H](C)O)N(C)C1 [Lincomycin, lincomycin] | 5 µg/mL | 10 µg/mL | – | – | – | – | – |
| [H]/N=C(/N)N[C@H]1[C@H](O)[C@@H](O)[C@H](O[C@@H]2O[C@@H](C)[C@](O)(C=O)[C@H]2O[C@@H]2O[C@@H](CO)[C@H](O)[C@@H](O)[C@@H]2NC)[C@@H](N/C(N)=N\[H])[C@@H]1O [STR] | – | – | – | – | 37 | 52 | Number of strains with a MIC of 8.0 μg/ml [3]: 21 |
| CN(C)[C@@H]1C(=O)C(C(N)=O)=C(O)[C@@]2(O)C(=O)C3=C(O)c4c(O)cccc4[C@@](C)(O)[C@H]3C[C@@H]12 [Tetracyclin, tetracyclin] | 2.5 µg/mL | 10 µg/mL | – | – | – | – | – |
| penicillin | – | – | 28 | 11 | 7 | – | Number of strains with a MIC of 0.125 μg/ml [3]: 9; Number of strains with a MIC of 0.25 μg/ml [3]: 76 |

The next lines start with results.

| Antibiotic sensitivity (expressed as MIC) of L. rhamnosus LMG P-22799 (L. rhamnosus LMG P-22799) | Antibiotic sensitivity (expressed as MIC) of L. rhamnosus GG (ATTC 53103) [2] | Number of strains with a MIC of 0.5 μg/ml [3] | Number of strains with a MIC of 1.0 μg/ml [3] | Number of strains with a MIC of 2.0 μg/ml [3] | Number of strains with a MIC of 4.0 μg/ml [3] | Compound | further results |
| --- | --- | --- | --- | --- | --- | --- | --- |
| 2.5 µg/mL | >10 µg/mL | 52 | 62 | 12 | 2 | CC1(C)S[C@@H]2[C@H](NC(=O)[C@H](N)c3ccccc3)C(=O)N2[C@H]1C(=O)O [Ampicillin, ampicillin] | AMP sensitivity ratio LGG/LMG P-22799 [1]: 2-4; MIC ([1]; Lacticaseibacillus rhamnosus, unit from Table 6, read-out: MIC against our preferred Lb. rhamnosus): ≤ 0.5 µg/mL; MIC (Lb. rhamnosus GG): ≥ 1 µg/mL; Number of strains with a MIC of 0.25 μg/ml [3]: 3 |
| – | – | 1 | 10 | 88 | 31 | O=C(N[C@H](CO)[C@H](O)c1ccc([N+](=O)[O-])cc1)C(Cl)Cl [CMP] | Number of strains with a MIC of 8.0 μg/ml [3]: 1 |
| 5 µg/mL | >10 µg/mL | – | – | – | – | O=C(N[C@H](CO)[C@H](O)c1ccc([N+](=O)[O-])cc1)C(Cl)Cl [Chloramphenicol, chloramphenicol] | – |
| 5 µg/mL | >10 µg/mL | – | – | – | – | [H]/N=C(/N)N[C@H]1[C@H](O)[C@@H](O)[C@H](O[C@@H]2O[C@@H](C)[C@](O)(C=O)[C@H]2O[C@@H]2O[C@@H](CO)[C@H](O)[C@@H](O)[C@@H]2NC)[C@@H](N/C(N)=N\[H])[C@@H]1O [Streptomycin, streptomycin] | – |
